From patent US11098077B2, “Locked nucleic acid cyclic dinucleotide compounds and uses thereof” (CHINOOK THERAPEUTICS, INC., priority 2016, dated 2021)

Legend:
[1] = target: T1, hSTING WT (Homo sapiens, UniProt Q86WV6, H232R); experiment: Differential scanning fluorometry (DSF) binding to purified STING AA140-379, wild type; conditions: for hSTING Tm Shift WT: DSF, ligand 1 mM, 1 mg/ml STING AA140-379
T1 construct: DNA encoding amino acids 140-379 (amino acid numbering corresponding to Swiss Prot Q86WV6); 6xHIS (N, cleaved yes); SUMO (N, cleaved yes); made in house; host or cells: Rosetta2 (DE3) E. coli
T1 sequence (Q86WV6 140-379 H232R limits assumed): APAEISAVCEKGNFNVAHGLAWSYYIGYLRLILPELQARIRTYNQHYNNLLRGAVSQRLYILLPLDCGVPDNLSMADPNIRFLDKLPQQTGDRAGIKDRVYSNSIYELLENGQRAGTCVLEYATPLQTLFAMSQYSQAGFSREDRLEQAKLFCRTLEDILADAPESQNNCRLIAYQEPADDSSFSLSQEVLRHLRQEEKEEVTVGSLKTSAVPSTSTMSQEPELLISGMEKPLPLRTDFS
Experimental: (§1) Cells were grown in lysogeny broth at 37° C. until a […] absorbance of 0.6 was reached. […] Cell pellets were re-suspended on ice in a buffer containing 50 mM Tris hydrochloride (Tris-HCl) pH 7.5, 500 mM sodium chloride (NaCl), 20 mM imidazole, 10% glycerol, 1 mM tris(2-carboxyethyl)phosphine hydrochloride (TCEP) and protease inhibitor tablet (Pierce) (Buffer A). Cells were lysed using an S-450D sonifier (Emmerson industrial) on ice. […] Protein was aliquoted, flash frozen in liquid nitrogen and stored at −80° C. until use.
(§2) The protein is heated in the presence of a dye that binds to and fluoresces in hydrophobic environments. The protein is thermally denatured by heating resulting in increased dye binding to the unfolded protein and fluorescence. The temperature midpoint (Tm) of a proteins denaturation is established by calculating the half maximal value of the denaturation curve. The temperature midpoint of the protein in the presence of a ligand is directly related to the affinity of the ligand for the protein and therefore its ability to stabilize the protein at higher temperatures.
(§3) Each of wild type hSTING, HAQ allele hSTING and REF allele hSTING were used with each of the reference compounds and compounds of the invention as listed in Table 4. Samples were placed in hard shell PCR plate (Bio-Rad). The fluorescence as a function of temperature was recorded in a CFX 96 real time PCR machine (Bio-Rad) reading on the HEX channel, excitation 450-490, emission 560-580 nm. The temperature gradient was from 15-80° C. ramping 0.5° C. per 15 seconds and recording every 0.5° C. After subtraction of the background signal from a sample lacking protein and ligand. The midpoint temperature (Tm) was calculated by fitting the curves of the fluorescence as a function of temperature to a Boltzmann sigmoidal function (Graph Pad Prism).

[2] = target: T2, hSTING HAQ allele (Homo sapiens, UniProt Q86WV6, G230A/H232R/R293Q); experiment: Differential scanning fluorometry (DSF) binding to purified STING AA140-379, HAQ allele; conditions: ligand 1 mM, 1 mg/ml STING AA140-379
T2 construct: DNA encoding amino acids 140-379 (amino acid numbering corresponding to Swiss Prot Q86WV6); 6xHIS (N, cleaved yes); SUMO (N, cleaved yes); made in house; host or cells: Rosetta2 (DE3) E. coli
T2 sequence (Q86WV6 140-379 G230A/H232R/R293Q limits assumed): as the sequence (Q86WV6 140-379 H232R limits assumed) above, with G91A, R154Q counted along it
Experimental: as §1, §2, §3

[3] = target: T3, hSTING REF allele (Homo sapiens, UniProt Q86WV6); experiment: Differential scanning fluorometry (DSF) binding to purified STING AA140-379, REF allele; conditions: for hSTING Tm Shift REF: DSF, ligand 1 mM, 1 mg/ml STING AA140-379; for Tm shift compared with 2′3′-RR-(A)(A) and 2′3′-(G)(A): for the REF allele
T3 construct: DNA encoding amino acids 140-379 (amino acid numbering corresponding to Swiss Prot Q86WV6); 6xHIS (N, cleaved yes); SUMO (N, cleaved yes); made in house; host or cells: Rosetta2 (DE3) E. coli
T3 sequence (Q86WV6 140-379): as the sequence (Q86WV6 140-379 H232R limits assumed) above, with R93H counted along it
Experimental: as §1, §2, §3

[4] = target: T4, hSTING HAQ allele in THP1-Dual cells (Homo sapiens, UniProt Q86WV6, G230A/H232R/R293Q/R71H); experiment: THP1-Dual IRF-3 inducible secreted luciferase reporter assay (type I interferon activation), without digitonin; type: cell-based
T4 construct: a human monocyte cell line containing the hSTING HAQ allele; host or cells: THP1-Dual cells
T4 sequence (Q86WV6 whole entry R71H/G230A/H232R/R293Q): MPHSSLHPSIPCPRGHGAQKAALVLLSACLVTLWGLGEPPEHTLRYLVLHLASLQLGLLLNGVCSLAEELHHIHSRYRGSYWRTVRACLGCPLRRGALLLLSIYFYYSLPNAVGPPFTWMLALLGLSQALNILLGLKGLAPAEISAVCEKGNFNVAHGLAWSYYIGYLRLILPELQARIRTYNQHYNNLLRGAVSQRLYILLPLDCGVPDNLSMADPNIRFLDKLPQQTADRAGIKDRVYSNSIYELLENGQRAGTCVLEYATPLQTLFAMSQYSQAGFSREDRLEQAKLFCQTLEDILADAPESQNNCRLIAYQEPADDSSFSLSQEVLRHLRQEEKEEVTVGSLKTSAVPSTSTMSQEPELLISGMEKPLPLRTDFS
Experimental: After 30 minutes, cells were washed and fresh RPMI media containing 10% FBS was added, and cells were incubated at 37° C. with 5% CO2 Cell culture supernatants from each sample were collected after overnight incubation, and 10 μL of the cell culture supernatants was added to 50 μL QUANTI-Luc reagent (Invivogen). Type I interferon activation was determined by measuring secreted luciferase levels on a SpectraMax M3 spectrophotometer (Molecular Devices).

[5] = for all three alleles (WT, HAQ, REF)

| SMILES | hSTING Tm Shift WT [1] [°C] | hSTING Tm Shift HAQ [2] [°C] | hSTING Tm Shift REF [3] [°C] | EC50 [4] [µM] | Tm shift compared with reference compound 2′3′-RR-(A)(A) [1, 5] | Tm shift compared with 2′3′-RR-(A)(A) and 2′3′-(G)(A) [3] | Tm shift compared with natural ligand 2′3′-(G)(A) [1, 5] |
| --- | --- | --- | --- | --- | --- | --- | --- |
| O=C(Nc1ncnc2c1ncn2[C@@H]1O[C@@]23CO[C@@H]1[C@@H]2O[P@@](=O)(S)OC[C@@H]1C[C@@H](O[P@](=O)(S)OC3)[C@H](n2cnc3c(NC(=O)c4ccccc4)ncnc32)O1)c1ccccc1 [Compound 22b, dithio-(Rp,Sp)-cyclic-[3′H-BzA(2′,5′)p-2′O,4′C-LNA-BzA(3′,5′)p]] | 4.6 | 5.9 | 4.6 |  |  |  |  |
| CC(C)(C)[Si](C)(C)O[C@H]1[C@H]2O[P@](=O)(S)OC[C@@]34CO[C@@H]([C@H](n5cnc6c(N)ncnc65)O3)[C@@H]4O[P@](=O)(S)OC[C@H]1O[C@H]2n1cnc2c(N)ncnc21 [Compound 11a, dithio-(Rp,Rp)-cyclic-[3′-OTBS-A(2′,5′)p-2′O,4′C-LNA-A(3′,5′)p]] | 7.0 | 11.6 | 5.4 |  |  |  |  |
| Nc1ncnc2c1ncn2[C@@H]1O[C@@H]2CO[P@@](=O)(S)O[C@H]3[C@H]4OC[C@]3(CO[P@@](=O)(S)O[C@@H]1[C@@H]2O)O[C@H]4n1cnc2c(N)ncnc21 [Compound 10a, dithio-(Rp,Rp)-cyclic-[A(2′,5′)p-2′O,4′C-LNA-A(3′,5′)p]] | 10.4 | 16.1 | 7.5 | 24.3 |  |  |  |
| Nc1ncnc2c1ncn2[C@@H]1O[C@@]23CO[C@@H]1[C@@H]2O[P@](=O)(S)OC[C@@H]1C[C@@H](O[P@](=O)(S)OC3)[C@H](n2cnc3c(N)ncnc32)O1 [Compound 21a, dithio-(Rp,Rp)-cyclic-[3′H-A(2′,5′)p-2′O,4′C-LNA-A(3′,5′)p]] | 9.5 | 16.2 | 6.2 | 26.9 |  |  |  |
| Nc1ncnc2c1ncn2[C@@H]1O[C@@H]2CO[P@@](=O)(S)O[C@H]3[C@H]4OC[C@]3(CO[P@](=O)(S)O[C@@H]1[C@H]2F)O[C@H]4n1cnc2c(N)ncnc21 [Compound 37c, dithio-(Sp,Rp)-cyclic-[3′βF-A(2′,5′)p-2′O,4′C-LNA-A(3′,5′)p]] | 1.2 | 5.7 | 0.8 | > 150 |  |  |  |
| Nc1ncnc2c1ncn2[C@@H]1O[C@@H]2CO[P@](=O)(S)O[C@H]3[C@H]4OC[C@]3(CO[P@](=O)(S)O[C@@H]1[C@H]2F)O[C@H]4n1cnc2c(N)ncnc21 [Compound 37d, dithio-(SP,SP)-cyclic-[3′βF-A(2′,5′)p-2′O,4′C-LNA-A(3′,5′)p]] | −0.3 | 2.4 | −0.3 | > 150 |  |  |  |
| Nc1ncnc2c1ncn2[C@@H]1O[C@@H]2CO[P@@](=O)(S)O[C@H]3[C@H]4OC[C@]3(CO[P@@](=O)(S)O[C@@H]1[C@@H]2F)O[C@H]4n1cnc2c(N)ncnc21 [Compound 27a, dithio-(Rp,Rp)-cyclic-[3′F-A(2′,5′)p-2′O,4′C-LNA-A(3′,5′)p]] | 11.8 | 18.2 | 10.2 | 10 | comparable to or greater than that of the reference compound 2′3′-RR-(A)(A) | greater Tm shift than both 2′3′-RR-(A)(A) and 2′3′-(G)(A) |  |
| Nc1ncnc2c1ncn2[C@@H]1O[C@@H]2CO[P@@](=O)(S)O[C@H]3[C@H]4OC[C@]3(CO[P@@](=O)(S)O[C@@H]1[C@H]2F)O[C@H]4n1cnc2c(N)ncnc21 [Compound 37a, dithio-(RP,RP)-cyclic-[3′βF-A(2′,5′)p-2′O,4′C-LNA-A(3′,5′)p]] | 4.7 | 11.2 | 2.1 | 61.2 |  |  |  |
| Nc1ncnc2c1ncn2[C@@H]1O[C@@H]2CO[P@](=O)(S)O[C@H]3[C@H]4OC[C@]3(CO[P@@](=O)(S)O[C@@H]1[C@@H]2O)O[C@H]4n1cnc2c(N)ncnc21 [Compound 10b, dithio-(Rp,Sp)-cyclic-[A(2′,5′)p-2′O,4′C-LNA-A(3′,5′)p]] | 8.7 | 13.9 | 7.4 | 110 |  |  |  |
| Nc1nc2c(ncn2[C@@H]2O[C@@H]3CO[P@@](=O)(S)O[C@H]4[C@H]5OC[C@]4(CO[P@@](=O)(S)O[C@H]3[C@H]2O)O[C@H]5n2cnc3c(N)ncnc32)c(=O)[nH]1 [Compound 45a, 2-amino-9-((2R,3R,3aS,5R,7aR,9R,10R,10aS,12R,14aR)-2-(6-amino-9H-purin-9-yl)-10-hydroxy-5,12-dimercapto-5,12-dioxidohexahydro-2H,7H,14H-3,14a-(epoxymethano)difuro[3,2-d:3′,2′-j][1,3,7,9]tetraoxa[2,8]diphosphacyclododecin-9-yl)-1,9-dihydro-6H-purin-6-one] | 20.3 | 34.0 | 13.1 | 5.8 | comparable to or greater than that of the reference compound 2′3′-RR-(A)(A) | greater Tm shift than both 2′3′-RR-(A)(A) and 2′3′-(G)(A) | greater Tm shift than the natural ligand 2′3′-(G)(A) |
| O=C(Nc1ncnc2c1ncn2[C@@H]1O[C@@H]2CO[P@@](=O)(S)O[C@H]3[C@H]4OC[C@]3(CO[P@@](=O)(S)O[C@@H]1[C@@H]2O)O[C@H]4n1cnc2c(NC(=O)c3ccccc3)ncnc21)c1ccccc1 [Compound 11d, dithio-(Rp,Rp)-cyclic-[3′-BzA(2′,5′)p-2′O,4′C-LNA-BzA(3′,5′)p]] | 2.5 | 3.7 | 2.4 |  |  |  |  |
| O=C(Nc1ncnc2c1ncn2[C@@H]1O[C@@H]2CO[P@@](=O)(S)O[C@H]3[C@H]4OC[C@]3(CO[P@](=O)(S)O[C@@H]1[C@@H]2O)O[C@H]4n1cnc2c(NC(=O)c3ccccc3)ncnc21)c1ccccc1 [Compound 11f, dithio-(Sp,Rp)-cyclic-[3′-BzA(2′,5′)p-2′O,4′C-LNA-BzA(3′,5′)p]] | 6.6 | 7.5 | 6.5 |  |  |  |  |
| O=C(Nc1ncnc2c1ncn2[C@@H]1O[C@@H]2CO[P@](=O)(S)O[C@H]3[C@H]4OC[C@]3(CO[P@@](=O)(S)O[C@@H]1[C@@H]2O)O[C@H]4n1cnc2c(NC(=O)c3ccccc3)ncnc21)c1ccccc1 [Compound 11e, dithio-(Rp,Sp)-cyclic-[3′-BzA(2′,5′)p-2′O,4′C-LNA-BzA(3′,5′)p]] | 1.1 | 1.5 | 1.2 |  |  |  |  |
| O=C(Nc1ncnc2c1ncn2[C@@H]1O[C@@]23CO[C@@H]1[C@@H]2O[P@](=O)(S)OC[C@@H]1C[C@@H](O[P@](=O)(S)OC3)[C@H](n2cnc3c(NC(=O)c4ccccc4)ncnc32)O1)c1ccccc1 [Compound 22a, dithio-(Rp,Rp)-cyclic-[3′H-BzA(2′,5′)p-2′O,4′C-LNA-BzA(3′,5′)p]] | 0.6 | 2.2 | 0.6 |  |  |  |  |
| CC(C)(C)[Si](C)(C)O[C@H]1[C@H]2O[P@](=O)(S)OC[C@@]34CO[C@@H]([C@H](n5cnc6c(N)ncnc65)O3)[C@@H]4O[P@@](=O)(S)OC[C@H]1O[C@H]2n1cnc2c(N)ncnc21 [Compound 11b, dithio-(Rp,Sp)-cyclic-[3′-OTBS-A(2′,5′)p-2′O,4′C-LNA-A(3′,5′)p]] | −1.8 | 3.3 | −1.5 |  |  |  |  |
